Converted amounts (≈) assume the structure as drawn.
System: Mycobacterium tuberculosis H37Rv
Assay: Mycobacterium tuberculosis H37Rv Inhibition Assay (Whole Cell Assay)
Type: cell-based
Details: ATCC 25618 / H37Rv, H37Rv strain (ATCC25618), Middlebrook 7H9, six days at 37° C., resazurin fluorescence after 48 hours

CCc1ccc([C@H]2C[C@@H](C(F)(F)F)n3ncc(C(=O)NCc4cccc(C(F)(F)F)c4)c3N2)cc1 (relative stereo) [Example 14, Cis-5-(4-ethylphenyl)-7-(trifluoromethyl)-N-{[3-(trifluoromethyl)phenyl]methyl}-4,5,6,7-tetrahydropyrazolo[1,5-a]pyrimidine-3-carboxamide]
MIC: 1 to 2 µM (≈ 0.496 to 0.993 µg/mL)

CCc1ccc([C@H]2C[C@@H](C(F)(F)F)n3ncc(C(=O)NCc4ccccc4)c3N2)cc1 (relative stereo) [Example 15, Cis-N-benzyl-5-(4-ethylphenyl)-7-(trifluoromethyl)-4,5,6,7-tetrahydropyrazolo[1,5-a]pyrimidine-3-carboxamide]
MIC: ≤ 1 µM

CCc1ccc([C@H]2C[C@@H](C(F)(F)F)n3ncc(C(=O)NCc4ccc(F)c(F)c4)c3N2)cc1 (relative stereo) [Example 16, Cis-N-[(3,4-difluorophenyl)methyl]-5-(4-ethylphenyl)-7-(trifluoromethyl)-4,5,6,7-tetrahydropyrazolo[1,5-a]pyrimidine-3-carboxamide]
MIC: ≤ 1 µM

CCc1ccc([C@H]2C[C@@H](C(F)(F)F)n3ncc(C(=O)NCc4cc(F)cc(F)c4)c3N2)cc1 (relative stereo) [Example 17, Cis-N-[(3,5-difluorophenyl)methyl]-5-(4-ethylphenyl)-7-(trifluoromethyl)-4,5,6,7-tetrahydropyrazolo[1,5-a]pyrimidine-3-carboxamide]
MIC: ≤ 1 µM

CCc1ccc([C@H]2C[C@@H](C(F)(F)F)n3ncc(C(=O)NCc4ccc5c(c4)OCCO5)c3N2)cc1 (relative stereo) [Example 18, Cis-N-(2,3-dihydro-1,4-benzodioxin-6-ylmethyl)-5-(4-ethylphenyl)-7-(trifluoromethyl)-4,5,6,7-tetrahydropyrazolo[1,5-a]pyrimidine-3-carboxamide]
MIC: 1 to 2 µM (≈ 0.486 to 0.973 µg/mL)

CCc1ccc([C@H]2C[C@@H](C(F)(F)F)n3ncc(C(=O)NCc4ccc(C)nc4)c3N2)cc1 (relative stereo) [Example 19, Cis-5-(4-ethylphenyl)-N-((6-methylpyridin-3-yl)methyl)-7-(trifluoromethyl)-4,5,6,7-tetrahydropyrazolo[1,5-a]pyrimidine-3-carboxamide]
MIC: 1 to 2 µM (≈ 0.443 to 0.887 µg/mL)

CCc1ccc([C@H]2C[C@@H](C(F)(F)F)n3ncc(C(=O)NCc4ccc(C)cn4)c3N2)cc1 (relative stereo) [Example 20, Cis-5-(4-ethylphenyl)-N-((5-methylpyridin-2-yl)methyl)-7-(trifluoromethyl)-4,5,6,7-tetrahydropyrazolo[1,5-a]pyrimidine-3-carboxamide]
MIC: 1 to 2 µM (≈ 0.443 to 0.887 µg/mL)

Cc1ccc(CNC(=O)c2cnn3c2N[C@@H](c2ccc(Br)cc2)C[C@H]3C(F)(F)F)cc1 (relative stereo) [Example 21, Cis-5-(4-bromophenyl)-N-(4-methylbenzyl)-7-(trifluoromethyl)-4,5,6,7-tetrahydropyrazolo[1,5-a]pyrimidine-3-carboxamide]
MIC: ≤ 1 µM

O=C(NCc1ccc2c(c1)OCO2)c1cnn2c1N[C@@H](c1ccc(Br)cc1)C[C@H]2C(F)(F)F (relative stereo) [Example 22, Cis-N-(benzo[d][1,3]dioxol-5-ylmethyl)-5-(4-bromophenyl)-7-(trifluoromethyl)-4,5,6,7-tetrahydropyrazolo[1,5-a]pyrimidine-3-carboxamide]
MIC: ≤ 1 µM

CCc1ccc([C@H]2C[C@@H](C)n3ncc(C(=O)NCc4ccc(OC)cc4)c3N2)cc1 (relative stereo) [Example 23, Cis-5-(4-ethylphenyl)-7-methyl-N-{[4-(methyloxy)phenyl]methyl}-4,5,6,7-tetrahydropyrazolo[1,5-a]pyrimidine-3-carboxamide]
MIC: ≤ 1 µM

Cc1ccc([C@H]2C[C@@H](C(F)(F)F)n3ncc(C(=O)NCc4cccc(C)c4)c3N2)cc1 (relative stereo) [Example 24, Cis-N-(3-methylbenzyl)-5-(p-tolyl)-7-(trifluoromethyl)-4,5,6,7-tetrahydropyrazolo[1,5-a]pyrimidine-3-carboxamide]
MIC: ≤ 1 µM

Cc1ccc(CNC(=O)c2cnn3c2N[C@@H](c2ccc(C)cc2)C[C@H]3C(F)(F)F)cc1 (relative stereo) [Example 25, Cis-N-(4-methylbenzyl)-5-(p-tolyl)-7-(trifluoromethyl)-4,5,6,7-tetrahydropyrazolo[1,5-a]pyrimidine-3-carboxamide]
MIC: ≤ 1 µM

Cc1ccc([C@H]2C[C@@H](C(F)(F)F)n3ncc(C(=O)NCC4CCCCC4)c3N2)cc1 (relative stereo) [Example 26, Cis-N-(cyclohexylmethyl)-5-(p-tolyl)-7-(trifluoromethyl)-4,5,6,7-tetrahydropyrazolo[1,5-a]pyrimidine-3-carboxamide]
MIC: 1 to 2 µM (≈ 0.42 to 0.841 µg/mL)

COc1cccc(CNC(=O)c2cnn3c2N[C@@H](c2ccc(C)cc2)C[C@H]3C(F)(F)F)c1 (relative stereo) [Example 27, Cis-N-(3-methoxybenzyl)-5-(p-tolyl)-7-(trifluoromethyl)-4,5,6,7-tetrahydropyrazolo[1,5-a]pyrimidine-3-carboxamide]
MIC: 1 to 2 µM (≈ 0.444 to 0.889 µg/mL)

Cc1ccc([C@H]2C[C@@H](C(F)(F)F)n3ncc(C(=O)NCc4ccc(C(F)(F)F)cc4)c3N2)cc1 (relative stereo) [Example 28, Cis-5-(p-tolyl)-7-(trifluoromethyl)-N-(4-(trifluoromethyl)benzyl)-4,5,6,7-tetrahydropyrazolo[1,5-a]pyrimidine-3-carboxamide]
MIC: 1 to 2 µM (≈ 0.482 to 0.965 µg/mL)

Cc1ccc([C@H]2C[C@@H](C(F)(F)F)n3ncc(C(=O)NCc4ccc(C)c(Cl)c4)c3N2)cc1 (relative stereo) [Example 29, Cis-N-(3-chloro-4-methylbenzyl)-5-(p-tolyl)-7-(trifluoromethyl)-4,5,6,7-tetrahydropyrazolo[1,5-a]pyrimidine-3-carboxamide]
MIC: 1 to 2 µM (≈ 0.463 to 0.926 µg/mL)

Cc1ccc([C@H]2C[C@@H](C(F)(F)F)n3ncc(C(=O)NCc4cc(F)cc(F)c4)c3N2)cc1 (relative stereo) [Example 30, Cis-N-(3,5-difluorobenzyl)-5-(p-tolyl)-7-(trifluoromethyl)-4,5,6,7-tetrahydropyrazolo[1,5-a]pyrimidine-3-carboxamide]
MIC: ≤ 1 µM

Cc1ccc([C@H]2C[C@@H](C(F)(F)F)n3ncc(C(=O)NCc4ccc(F)c(F)c4)c3N2)cc1 (relative stereo) [Example 31, Cis-N-(3,4-difluorobenzyl)-5-(p-tolyl)-7-(trifluoromethyl)-4,5,6,7-tetrahydropyrazolo[1,5-a]pyrimidine-3-carboxamide]
MIC: ≤ 1 µM

CCc1ccc([C@H]2C[C@@H](C(F)F)n3ncc(C(=O)NCc4ccc(OC)cc4)c3N2)cc1 (relative stereo) [Example 32, Cis-7-(difluoromethyl)-5-(4-ethylphenyl)-N-(4-methoxybenzyl)-4,5,6,7-tetrahydropyrazolo[1,5-a]pyrimidine-3-carboxamide]
MIC: ≤ 1 µM

CCc1ccc([C@H]2C[C@@H](C(F)F)n3ncc(C(=O)NCc4ccc(C)cc4)c3N2)cc1 (relative stereo) [Example 33, Cis-7-(difluoromethyl)-5-(4-ethylphenyl)-N-(4-methylbenzyl)-4,5,6,7-tetrahydropyrazolo[1,5-a]pyrimidine-3-carboxamide]
MIC: ≤ 1 µM

CCc1ccc([C@H]2C[C@@H](C(F)F)n3ncc(C(=O)NCc4ccc5c(c4)OCO5)c3N2)cc1 (relative stereo) [Example 34, Cis-N-(benzo[d][1,3]dioxol-5-ylmethyl)-7-(difluoromethyl)-5-(4-ethylphenyl)-4,5,6,7-tetrahydropyrazolo[1,5-a]pyrimidine-3-carboxamide]
MIC: ≤ 1 µM

CCc1ccc([C@H]2C[C@@H](C(C)(C)C)n3ncc(C(=O)NCc4ccc(OC)cc4)c3N2)cc1 (relative stereo) [Example 35, Cis-7-(tert-butyl)-5-(4-ethylphenyl)-N-(4-methoxybenzyl)-4,5,6,7-tetrahydropyrazolo[1,5-a]pyrimidine-3-carboxamide]
MIC: ≤ 1 µM

CCc1ccc([C@H]2C[C@@H](C(C)(C)C)n3ncc(C(=O)NCc4ccc5c(c4)OCO5)c3N2)cc1 (relative stereo) [Example 36, Cis-N-(benzo[d][1,3]-dioxol-5-ylmethyl)-7-(tert-butyl)-5-(4-ethylphenyl)-4,5,6,7-tetrahydropyrazolo[1,5-a]pyrimidine-3-carboxamide]
MIC: 1 to 2 µM (≈ 0.461 to 0.921 µg/mL)

COc1ccc(CNC(=O)c2cnn3c2N[C@@H](c2ccc(Br)cc2)C[C@H]3C(F)(F)F)cc1 (relative stereo) [Example 42, Cis-5-(4-bromophenyl)-N-(4-methoxybenzyl)-7-(trifluoromethyl)-4,5,6,7-tetrahydropyrazolo[1,5-a]pyrimidine-3-carboxamide]
MIC: > 2 µM

Cc1ccc([C@H]2C[C@@H](C(F)(F)F)n3ncc(C(=O)NCc4ccccc4C(F)(F)F)c3N2)cc1 (relative stereo) [Example 43, Cis-5-(p-tolyl)-7-(trifluoromethyl)-N-(2-(trifluoromethyl)benzyl)-4,5,6,7-tetrahydropyrazolo[1,5-a]pyrimidine-3-carboxamide]
MIC: > 2 µM

CCc1ccc([C@H]2C[C@@H](C(F)(F)F)n3ncc(C(=O)NCc4ccccc4C(F)(F)F)c3N2)cc1 (relative stereo) [Example 44, Cis-5-(4-ethylphenyl)-7-(trifluoromethyl)-N-(2-(trifluoromethyl)benzyl)-4,5,6,7-tetrahydropyrazolo[1,5-a]pyrimidine-3-carboxamide]
MIC: > 2 µM

CCc1ccc([C@H]2C[C@@H](C(F)(F)F)n3ncc(C(=O)NCc4ccccc4OC)c3N2)cc1 (relative stereo) [Example 45, Cis-5-(4-ethylphenyl)-N-(2-methoxybenzyl)-7-(trifluoromethyl)-4,5,6,7-tetrahydropyrazolo[1,5-a]pyrimidine-3-carboxamide]
MIC: > 2 µM

CCc1ccc([C@H]2C[C@@H](C(F)(F)F)n3ncc(C(=O)NCc4ccc(OC)cc4OC)c3N2)cc1 (relative stereo) [Example 46, Cis-N-(2,4-dimethoxybenzyl)-5-(4-ethylphenyl)-7-(trifluoromethyl)-4,5,6,7-tetrahydropyrazolo[1,5-a]pyrimidine-3-carboxamide]
MIC: > 2 µM
